Series [1] concerns Typhlodromus pyri. In words: LR50; higher = less toxic. The settings on record: not reported; mortality.
The subject of series [2] is Aphidius rhopalosiphi. The series can be described thus: LR50; higher = less toxic. The settings on record: not reported; mortality.
In series [3] the test system is Anas platyrhynchos. The settings on record: short-term; oral; feed; mortality.
The test system of series [4] is Colinus virginianus. The settings on record: acute; oral; mortality.
The subject of series [5] is Daphnia magna. The settings on record: chronic/long-term; duration: 21 days; reproduction.
Series [6] concerns Apis mellifera. The settings on record: acute; duration: 48 hours; oral; unspecified; mortality.
Series [7] has as its system Rattus norvegicus.
For series [8], the system named is Coturnix japonica. The settings on record: reproduction developmental.
Series [9] has as its system Oncorhynchus mykiss.
In series [10] the test system is Folsomia candida. The settings on record: chronic/long-term; duration: 28 days.
The subject of series [11] is Tagia sp. The settings on record: acute; duration: 14 days; mortality.
In series [12] the test system is Bibionidae. The settings on record: chronic/long-term; duration: 27 days.

Converted amounts (≈) assume the structure as drawn. Where only a bound is given, the exact number is not on record here.

Consider `CCNc1nc(Cl)nc(NC(C)(C)C)n1` [Terbutylazine], for which the LR50 in [1] and in series [2] was greater than 750 g/ha each time. Further, the LC50 in series [3] was greater than 395 mg/kg-day; in series [9] (acute, duration: 96 hours, mortality) it was 2.2 µg/mL (≈ 9.58 µM); in series [11], greater than 283 mg/kg. Also, the LD50 is 1240 mg/kg-day in series [4]; greater than 22.6 µg/piece in [6]; less than 1590 mg/kg in series [7] (acute, oral, mortality). Besides, the NOEC in series [5] came out at 0.019 mg/L; in series [9] (chronic/long-term, duration: 90 days, time to swim up), 0.09 mg/L; in series [10], 42.2 mg/kg; in [12], 0.5 mg/L. Besides, the no observed adverse effect level (NOAEL) in series [7] (chronic) came out at 3.3 mg/kg-day. The molecule also gave an NOEL in series [8] of 13.8 mg/kg-day.

The NOAEL is the highest dose or exposure tested at which no adverse effect was seen.
